Reference: ChEMBL document CHEMBL1201862, “PubChem BioAssay data set” (2004)
Activity calls are given as the source filed them.

How the values were obtained:
[1] = Luminescence Cell-Based Dose Response HTS to Identify Activators of Luciferase Translation or Activity in H4 […] Cells. [Related pubchem assays: 1829 (Project Summary), 1814 (Primary HTS)]; type: functional
[2] = Luminescence Cell-Based Dose Response to Identify Activators of Luciferase Translation or Activity in H4-C Neuroglioblastoma Cells. [Related pubchem assays: 1829 (Project Summary), 1814 (Primary HTS)]; type: functional
HeLa = assay: HeLa cell cytotoxicity, dose response, cytotoxicity control for MITF activator project, CellTiter-Glo luminescence, cherry-pick samples (AID 540259); type: functional, cell-based; settings: Homo sapiens
[3] = Luminescence Cell-Based Dose Confirmation to Identify Activators of 5'UTR Stem-Loop Driven Alpha-Synuclein mRNA Translation in H4 Neuroglioblastoma Cells. [Related pubchem assays: 1829 (Project Summary), 1814 (Primary HTS)]; type: functional
[4] = Luminescence Cell-Based Dose Confirmation HTS to Identify Activators of 5'UTR Stem-Loop Driven Alpha-Synuclein mRNA Translation in H4 Neuroglioblastoma Cells. [Related pubchem assays: 1829 (Project Summary), 1814 (Primary HTS)]; type: functional
H4 = assay: Luminescence Cell-Based Dose Response HTS to Identify Activators of 5'UTR Stem-Loop Driven Prion Protein mRNA Translation in H4 Neuroglioblastoma Cells. [Related pubchem assays: 1829 (Project Summary), 1814 (Primary HTS)]; type: functional; settings: Homo sapiens
[5] = Luminescence Cell-Based Dose Response to Identify Activators of 5'UTR Stem-Loop Driven Prion Protein mRNA Translation in H4-C Neuroglioblastoma Cells. [Related pubchem assays: 1829 (Project Summary), 1814 (Primary HTS)]; type: functional
Jurkat = assay: antigen receptor-induced NF-kB inhibitors, dose response, Jurkat, luciferase reporter, luminescence, B- and T-cell (AID 489004); type: functional, cell-based; settings: Homo sapiens;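 note: NF-kB luciferase reporter Jurkat cells stimulated with PMA plus ionomycin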
[6] = biological target: T1, Neuropeptide Y receptor type 1 (Homo sapiens, UniProt P25929); assay: NPY-Y1 receptor antagonist potency, dose response, cell-based (AID 1277); type: functional
T1 sequence (P25929 whole entry): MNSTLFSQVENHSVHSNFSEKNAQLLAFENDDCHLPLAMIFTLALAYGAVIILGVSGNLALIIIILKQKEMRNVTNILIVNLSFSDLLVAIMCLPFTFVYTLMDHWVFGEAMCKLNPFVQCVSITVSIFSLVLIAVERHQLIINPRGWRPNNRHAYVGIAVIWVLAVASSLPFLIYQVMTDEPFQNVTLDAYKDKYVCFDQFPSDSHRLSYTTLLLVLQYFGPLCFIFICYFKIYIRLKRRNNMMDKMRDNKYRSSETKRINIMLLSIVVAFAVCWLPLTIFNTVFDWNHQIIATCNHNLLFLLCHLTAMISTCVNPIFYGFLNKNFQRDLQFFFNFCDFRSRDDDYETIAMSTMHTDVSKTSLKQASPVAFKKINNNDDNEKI

cells [7] = type: functional, cell-based; settings: HEK-CNG
[8] = ZM109 Env clade C HIV-1 fusion inhibitors, dose response, HeLa effector, CEM target cells, luciferase, cherry-pick (AID 652058); type: functional, cell-based
[9] = inhibitors of firefly luciferase expression or activity, dose response, H4 neuroglioma cells, luminescence (AID 1990); type: functional, cell-based
Galanin receptor type 3 = Galanin receptor type 3 (Homo sapiens, UniProt O60755); assay: Fluorescence-based cell-based primary high throughput dose response assay to identify antagonists of the Galanin Receptor 3 (GalR3).; type: functional
Sequence of Galanin receptor type 3 (O60755 whole entry, the tested form may be a part): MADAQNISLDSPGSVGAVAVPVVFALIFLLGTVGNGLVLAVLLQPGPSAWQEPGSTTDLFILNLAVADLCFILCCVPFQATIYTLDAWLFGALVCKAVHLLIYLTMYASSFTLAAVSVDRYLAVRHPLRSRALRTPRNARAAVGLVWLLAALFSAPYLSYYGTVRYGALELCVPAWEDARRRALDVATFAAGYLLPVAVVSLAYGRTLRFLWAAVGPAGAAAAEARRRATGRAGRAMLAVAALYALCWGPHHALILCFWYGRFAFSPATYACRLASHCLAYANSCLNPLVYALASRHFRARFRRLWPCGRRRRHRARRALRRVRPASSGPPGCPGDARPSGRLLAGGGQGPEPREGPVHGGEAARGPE

[10] = CEM21 lymphoblast cell cytotoxicity, dose response, cytotoxicity control for viral fusion inhibitor project, CellTiter-Glo luminescence, cherry-picked (AID 652042); type: functional, cell-based;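 note: potency for signal decrease meaning cytotoxicity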
[11] = inhibitors of intracellular T. cruzi replication, confirmation, NIH3T3 host cells, beta-gal luminescence (AID 2044); type: functional, cell-based;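 note: intracellular parasites grown in NIH/3T3 mouse fibroblasts as host cells; luminescent beta-galactosidase reporter signal from transgenic T. cruzi replicating inside host cells; inhibitors lower the luminescence signal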
cells [12] = assay: cells
INS1 = assay: beta cell apoptosis inhibitors, cytokine rescue, dose response, luminescence, retest (AID 449756); type: functional, cell-based; settings: Rattus norvegicus;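 note: cell death triggered by IL-1 beta plus TNF-alpha plus IFN-gamma mixture; protective hits raise ATP signal compared with cytokine alone wells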
[13] = inhibitors of clade B AD8 Env fusion, dose response, cell-based, cherry-pick (AID 652062); type: functional;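 note: luciferase signal from cell-cell fusion driven by HIV-1 clade B AD8 Env; potency is for inhibitors of fusion seen as a drop in luminescence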
[14] = inhibitors of HIV Env-driven cell fusion, dose response, cherry-pick (AID 652057); type: functional, cell-based
[15] = inhibitors of SNCA 5'UTR-driven reporter translation, confirmation, H4 neuroglioma cells, luminescence (AID 1988); type: functional, cell-based
[16] = biological target: T2, Neuropeptide Y receptor type 2 (Homo sapiens, UniProt P49146); assay: NPY-Y2 antagonist potency, selectivity check, dose response, counter-screen for NPY-Y1 antagonist project, cell-based (AID 1278); type: functional
T2 sequence (P49146 whole entry): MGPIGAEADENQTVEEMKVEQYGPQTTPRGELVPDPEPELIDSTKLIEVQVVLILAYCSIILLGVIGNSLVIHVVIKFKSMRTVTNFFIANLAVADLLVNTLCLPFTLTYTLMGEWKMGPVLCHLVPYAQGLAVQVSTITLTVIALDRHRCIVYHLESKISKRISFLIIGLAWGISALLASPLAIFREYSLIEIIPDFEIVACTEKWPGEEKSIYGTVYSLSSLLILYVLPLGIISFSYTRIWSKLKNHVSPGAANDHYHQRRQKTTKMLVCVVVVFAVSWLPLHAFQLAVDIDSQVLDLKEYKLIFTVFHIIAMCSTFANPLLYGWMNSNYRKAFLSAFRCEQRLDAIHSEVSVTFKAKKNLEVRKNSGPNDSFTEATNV

[17] = off-target signal loss in HeLa-CEM21 co-culture – HeLa F-luc CTL cells, cherry-picked, counter-screen for HIV-1 Env fusion inhibitor project, dose response (AID 652040); type: functional, cell-based;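 note: potency for signal decrease marking cytotoxic or nonspecific inhibition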
[18] = cytotoxicity toward NIH3T3 fibroblasts, dose response, counter-screen, cell-based, ATP luminescence, mouse fibroblasts (AID 2010); type: functional;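 note: cells exposed to compound for about 90 hours before reading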
[19] = biological target: T3, COUP transcription factor 2 (Homo sapiens, UniProt P24468); assay: Luminescence-based cell-based high throughput dose response assay to identify inhibitors of COUP-TFII (NR2F2).; type: functional;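 note: HEK293 cells transiently cotransfected with COUP-TFII expression vector and reporter; luciferase reporter luminescence driven by COUP-TFII from the pX2-168 reporter plasmid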
T3 sequence (P24468 whole entry): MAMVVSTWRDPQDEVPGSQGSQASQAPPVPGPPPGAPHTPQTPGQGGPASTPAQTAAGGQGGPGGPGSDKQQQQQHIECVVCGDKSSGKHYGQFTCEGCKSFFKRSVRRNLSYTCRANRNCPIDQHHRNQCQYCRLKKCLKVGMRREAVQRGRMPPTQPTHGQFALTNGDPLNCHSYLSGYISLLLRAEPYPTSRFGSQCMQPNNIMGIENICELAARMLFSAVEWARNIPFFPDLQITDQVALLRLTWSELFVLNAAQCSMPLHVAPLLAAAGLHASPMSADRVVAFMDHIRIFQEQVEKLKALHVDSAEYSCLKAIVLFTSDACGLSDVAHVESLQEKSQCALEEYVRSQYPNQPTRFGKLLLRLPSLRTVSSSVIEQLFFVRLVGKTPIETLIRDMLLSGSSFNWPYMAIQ

[20] = cytotoxicity in HEK-293T NF-kB-Luc cells, dose response, cytotoxicity control for B/T-cell NF-kB inhibitor project, cell-based, uHTS hits (AID 489019); type: functional;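 note: IC50 reflects cytotoxicity as loss of cell viability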
[21] = Luminescence Cell-Based Dose Response HTS to Identify Inhibitors of 5'UTR Stem-Loop Driven Prion Protein mRNA Translation in H4 Neuroglioblastoma Cells. [Related pubchem assays: 1827 (Project Summary), 1813 (Primary HTS)]; type: functional

COc1cccc(/C(C)=N/N=C(\C)c2cccc(OC)c2)c1
active: EC50 [1] 0.488 µM | EC50 [2] 0.36 µM | AC50 (HeLa) 64.5 µM | EC50 [3] 0.419 µM | EC50 [4] < 0.1 µM | EC50 (H4) 38.7 µM | EC50 [5] 1.47 µM

CCCCCCn1c2c(c(=N)c3c1CCC3)CCC2
inactive: EC50 (cells [7]) > 29.9 µM | AC50 [17] > 70 µM | IC50 [20] > 80 µM
14.6 µM (not active): IC50 [16]
active: IC50 (Jurkat) 7.15 µM | IC50 [6] 8.75 µM | AC50 [8] 0.949 µM | EC50 [9] 8.02 µM | IC50 (Galanin receptor type 3) 8.41 µM | AC50 [10] 3.33 µM | EC50 [11] < 0.1 µM | EC50 (cells [12]) 0.007 µM | AC50 (INS1) 2.04 µM | AC50 [13] 3.19 µM | AC50 [14] 6.91 µM | EC50 [15] 6.52 µM | IC50 [19] 3.52 µM | EC50 [21] 14.3 µM
> 60 µM (not active): EC50 [18]
